Measured values taken from patent US20100130618A1, “TREATMENT OF HUMAN DISEASE CONDITIONS AND DISORDERS USING VITAMIN K ANALOGUES AND DERIVATIVES” (priority 2007, published 2010).
Where two headings read alike, the source gives them in different places.

What was measured:
Guinea Pig ileum [1] = experiment: Guinea pig ileum, acetylcholine induced smooth muscle contraction; settings: for inhibition of acetylcholine induced smooth muscle contraction: acetylcholine 50 μg/ml; for smooth muscle relaxant activity (inference): overall inference from guinea pig ileum data
Method: (§1) Muscle relaxant activity was evaluated of pure test samples PK and MK-4 with Frog Rectus Abdominus Muscle and Guinea Pig ileum.
(§2) To evaluate the effect of test samples on smooth muscle contraction induced by (a) Acetylcholine (Neurotransmitter) which acts on […] receptors, (b) Histamine that causes a transient rise of cytosolic calcium, which is mediated by H1 receptor coupling that triggers release of internal calcium stores and (c) Barium that enters the cell through a voltage dependent calcium channel and, either directly or indirectly, interacts with calmodulin.
(§3) Test Samples were PK-400 μg/ml and MK-4-400 μg/ml

Guinea Pig ileum [2] = experiment: Guinea pig ileum, barium chloride induced smooth muscle contraction; settings: dose 640 μg (1.6 ml); barium chloride 1%
Method: as §1, §2, §3

Guinea Pig ileum [3] = experiment: Guinea pig ileum, histamine induced smooth muscle contraction; settings: dose 640 μg (1.6 ml); histamine 25 μg/ml
Method: as §1, §2, §3

[4] = test system: Frog Rectus Abdominus Muscle; experiment: Frog rectus abdominus muscle preparation, acetylcholine induced skeletal muscle contraction; settings: for antagonism of contraction induced by acetylcholine (40 μg): dose of 400 μg; for activity on skeletal muscle contraction (inference): overall inference
Method: as §1
B) Frog Rectus Abdominus Muscle Preparation
To evaluate the effect of test samples on skeletal muscle contraction induced by Acetylcholine (Neurotransmitter).
Acetylcholine: 100 mcg/ml
as §3

Frog Heart = experiment: Frog heart, adrenaline-induced contractions; settings: for inhibition of adrenaline-induced contractions: 0.1 ml (40 μg), 0.2 ml (80 μg) and 0.4 ml (160 μg), adrenaline 40 μg/ml; for beta blocker activity (inference): overall inference from adrenalic response
Method: Frog Heart Adrenaline: 40 μg/ml

[5] = cited from earlier work
[6] = Clinical case studies of oral MK-7 (Examples 1-10); format: in vivo, humans
Text: Examples 1-10 enumerate clinical case studies data and Examples 11 and 12 provide in vitro experiments.

[7] = cited from earlier work; remark: listed apart in the source
[8] = cited from earlier work; remark: listed apart in the source
[9] = 50 gms natto per day with 865, 1295 or 1730 μg MK-7 per 100 g; cited from earlier work
[10] = Example 02: MK-7 p.o. every day
[11] = Example 05: person, 100 μg per day

CC1=C(C/C=C(\C)CCC[C@H](C)CCC[C@H](C)CCCC(C)C)C(=O)c2ccccc2C1=O [PK, phylloquinone]
inhibition of acetylcholine induced smooth muscle contraction (Guinea Pig ileum [1]; dose 320 μg (0.8 ml)): 38.46%
inhibition of acetylcholine induced smooth muscle contraction (Guinea Pig ileum [1]; dose 640 μg (1.6 ml)): 46.15%
smooth muscle relaxant activity (inference) (Guinea Pig ileum [1]): demonstrate a smooth muscle relaxant activity
inhibition of barium chloride induces smooth muscle contraction (Guinea Pig ileum [2]): 31%
inhibition of histamine induced smooth muscle contraction (Guinea Pig ileum [3]): 37.16%
antagonism of contraction induced by acetylcholine (40 μg) [4]: not antagonized
activity on skeletal muscle contraction (inference) [4]: failed to exhibit activity
inhibition of adrenaline-induced contractions (Frog Heart): failed to inhibit
beta blocker activity (inference) (Frog Heart): do not exhibit beta blocker activity
elimination half life ([5]; in vivo): 1.5 h
absorption from vegetables ([5]; taken together with 30 g fat): 10-15%
absorption from vegetables ([5]; without concomitant fat intake): 5-10%

CC(C)=CCC/C(C)=C/CC/C(C)=C/CC/C(C)=C/CC/C(C)=C/CC/C(C)=C/CC/C(C)=C/CC1=C(C)C(=O)c2ccccc2C1=O [MK-7]
tingling, numbness and burning of feet ([6]; Example 01: person, type 2 diabetes, MK-7 100 μg per day for 2 months): complete relief
skin hyper pigmentation of nape of neck ([6]; Example 01: person, type 2 diabetes, MK-7 for one and a half years): almost subsided
energy levels and fatigue ([6]; Example 02: MK-7 added to schedule): higher energy levels and less fatigue
paper-money skin appearance [6, 10]: much reduced
tingling and numbness [6, 10]: reduced markedly
frequency of mild cramps ([6]; Example 02: MK-7 p.o. every day, over the next four months (before: 2 to 3 times in a week)): one or two in a month
severity and frequency of muscle cramps ([6]; Example 02: person, type 2 diabetes, hypertension, MK-7 p.o. every day, over the next two weeks): steadily decreased
cramps during night and day ([6]; Example 03: person, 100 μg one tablet per day, after six months): disappeared
rough skin on both heels ([6]; Example 04: person, daily dose 200 μg, within 10-15 days): completely lost roughness and became smooth
scalp hair-loss [6, 11]: stopped distinctly
skin of feet [6, 11]: smoothness of skin of their feet, diminution of cracks in the feet
hyper pigmentation and paper-money skin of lower limbs ([6]; Example 05: person, p.o. 100 μg per day): gradually reduced to a bare minimum
frequency, duration and severity of leg cramps ([6]; Example 06: person, 100 μg two times a day): decreased
skin lightening ([6]; Example 07: 100 μg twice a day, another 3 months (6 months total)): considerable lightening of the skin
hyper pigmentation of face, arms and neck ([6]; Example 07: person, 100 μg twice a day, after 2 to 3 months): decreased
nail growth ([6]; Example 08: 200 μg per day, over 2 months): grows faster
severity of cramps after marathon ([6]; Example 08: athlete, 200 μg per day, within 2 months): lowered
residual neuropathy symptoms (tingling, numbness, paresthesiae, burning sensation) ([6]; Example 09: diabetic, 100 μg per day, within 15 days): disappears completely
frequency of restless legs syndrome ([6]; Example 10: 200 μg per day for 1 year (before: every night)): once or twice a month
restless legs syndrome ([6]; Example 10: person, 200 μg per day, within 2 weeks): reduced considerably
concentration relative to the peak value concentration (Cmax) achieved by PK ([5]; at 72 hrs): > 50%
detectability in circulation ([5]; at 72 hrs): remains detectable
half life ([5]; in vivo): 50 h
reduction (mid tertile) ([7]; dietary intake 24 μg per day mid tertile vs 12 μg per day lower tertile): 25%
reduction in CHD mortality and aortic calcification ([7]; dietary intake 45 μg per day upper tertile vs 12 μg per day lower tertile, 10 years follow-up): 50%
reduction in all cause mortality ([7]; dietary intake 45 μg per day upper tertile vs 12 μg per day lower tertile): 25%
serum MK-7 concentration (mean±SD) ([8]; British women): 0.37 ± 0.20 ng/mL
serum MK-7 concentration (mean±SD) ([8]; Japanese women in Hiroshima): 1.22 ± 1.85 ng/mL
serum MK-7 concentration (mean±SD) ([8]; Japanese women in Tokyo): 5.26 ± 6.13 ng/mL
serum MK-7 concentration and γ-carboxylated osteocalcin concentration [9]: elevated parallel to the administered level

vitamin B12
tingling and numbness ([6]; Example 02: vitamin B12 deficiency on Metformin, injections 500 μg over 2 weeks, MK-7 continued): significant relief

CC(C)NCC(O)COc1cccc2ccccc12 (stereo not drawn) [Propanolol]
inhibition of adrenaline response (Frog Heart; reference competitive inhibitor of adrenaline, FIG. 6): found to inhibit adrenaline response

CC(C)=CCC/C(C)=C/CC/C(C)=C/CC/C(C)=C/CC1=C(C)C(=O)c2ccccc2C1=O [MK-4, menatetrenone]
inhibition of acetylcholine induced smooth muscle contraction (Guinea Pig ileum [1]; dose 80 μg (0.2 ml)): 21.62%
inhibition of acetylcholine induced smooth muscle contraction (Guinea Pig ileum [1]; dose 160 μg (0.4 ml)): 40%
inhibition of acetylcholine induced smooth muscle contraction (Guinea Pig ileum [1]; dose 320 μg (0.8 ml)): 81.81%
smooth muscle relaxant activity (inference) (Guinea Pig ileum [1]): demonstrate a smooth muscle relaxant activity
inhibition of barium chloride induces smooth muscle contraction (Guinea Pig ileum [2]): 29%
inhibition of histamine induced smooth muscle contraction (Guinea Pig ileum [3]): 29.4%
antagonism of contraction induced by acetylcholine (40 μg) [4]: not antagonized
activity on skeletal muscle contraction (inference) [4]: failed to exhibit activity
inhibition of adrenaline-induced contractions (Frog Heart): failed to inhibit
beta blocker activity (inference) (Frog Heart): do not exhibit beta blocker activity
